This passage reports MIC and Relative hydrolysis results from ChEMBL document CHEMBL1150515, “Synthesis and structure-activity relationships of novel THF 1-methylcarbapenems II” (1997).

Broadly, the MIC is the smallest concentration in the dilution series that meets the test's criterion for growth inhibition.

The subject of one experiment is Staphylococcus aureus. The experiment can be described thus: The compound was evaluated for the antimicrobial activity against Staphylococcus aureus (ATCC 29213). The class given is functional.
Conditions: not given
Regarding `C[C@@H](O)[C@H]1C(=O)N2C(C(=O)[O-])=C(SC3COC(CN)C3)[C@H](C)[C@H]12.[Na+]` (stereo not given in full), the minimal inhibitory concentration (MIC) was ≤ 0.06 µg/mL.

The test system of a further experiment is Staphylococcus aureus. The experiment can be described thus: The compound was evaluated for the antimicrobial activity against methicillin - resistant Staphylococcus aureus (GC 2220).
Conditions: not given
The class given is functional.
For the molecule `CCN1CCN(C(=O)NC[C@H]2OCC[C@H]2SC2=C(C(=O)[O-])N3C(=O)[C@H]([C@@H](C)O)[C@H]3[C@H]2C)C(=O)C1=O.[Na+]`, the MIC was 8 µg/mL.

The next experiment relates to Stenotrophomonas maltophilia. Briefly: The compound was evaluated for the antimicrobial activity against Xanthomonas maltophilia (GC 562). The class given is functional.
Conditions: not given
`C[C@@H](O)[C@H]1C(=O)N2C(C(=O)[O-])=C(SC3COC(CN)C3)[C@H](C)[C@H]12.[Na+]` (stereo not given in full): the MIC is > 128 µg/mL.

Test system in the next experiment: not listed separately
Briefly: Antimicrobial activity against Citrobacter freundii (GC 2211). The class given is functional.
Conditions: not given
As to `CCN1CCN(C(=O)NC[C@H]2OCC[C@H]2SC2=C(C(=O)[O-])N3C(=O)[C@H]([C@@H](C)O)[C@H]3[C@H]2C)C(=O)C1=O.[Na+]`, the minimum inhibitory concentration (MIC) is 0.12 µg/mL.

For `C[C@@H](O)[C@H]1C(=O)N2C(C(=O)[O-])=C(SC3COC(CN)C3)[C@H](C)[C@H]12.[Na+]` (stereo not given in full), the minimal inhibitory concentration (MIC) amounted to 0.06 µg/mL.

Test system in a further experiment: not listed separately
The experiment can be described thus: Antimicrobial activity against Morganella morganii (GC 2213). The class given is functional.
Conditions: not given
`CCN1CCN(C(=O)NC[C@H]2OCC[C@H]2SC2=C(C(=O)[O-])N3C(=O)[C@H]([C@@H](C)O)[C@H]3[C@H]2C)C(=O)C1=O.[Na+]` had an MIC of 0.5 µg/mL.

As to `C[C@@H](O)[C@H]1C(=O)N2C(C(=O)[O-])=C(SC3COC(CN)C3)[C@H](C)[C@H]12.[Na+]` (stereo not given in full), the MIC came to 0.25 µg/mL.

Test system in a further experiment: not listed separately
Briefly: Antimicrobial activity against Xanthomonas maltophilia (GC 562). The class given is functional. The conditions noted are these: Stenotrophomonas maltophilia.
As for `CCN1CCN(C(=O)NC[C@H]2OCC[C@H]2SC2=C(C(=O)[O-])N3C(=O)[C@H]([C@@H](C)O)[C@H]3[C@H]2C)C(=O)C1=O.[Na+]`, the minimal inhibitory concentration (MIC) is > 128 µg/mL.

Test system in the next experiment: not listed separately
Briefly: Antimicrobial activity against Enterobacter cloacae (GC 2209). The class given is functional.
Conditions: not given
`CCN1CCN(C(=O)NC[C@H]2OCC[C@H]2SC2=C(C(=O)[O-])N3C(=O)[C@H]([C@@H](C)O)[C@H]3[C@H]2C)C(=O)C1=O.[Na+]`: the MIC was ≤ 0.06 µg/mL.

As for `C[C@@H](O)[C@H]1C(=O)N2C(C(=O)[O-])=C(SC3COC(CN)C3)[C@H](C)[C@H]12.[Na+]` (stereo not given in full), the minimal inhibitory concentration (MIC) is ≤ 0.06 µg/mL.

For a further experiment, the system named is Enterococcus faecalis. The experiment can be described thus: The compound was evaluated for the antimicrobial activity against Enterococcus faecalis (GC 842). The class given is functional.
Conditions: not given
`CCN1CCN(C(=O)NC[C@H]2OCC[C@H]2SC2=C(C(=O)[O-])N3C(=O)[C@H]([C@@H](C)O)[C@H]3[C@H]2C)C(=O)C1=O.[Na+]`: the lowest concentration to inhibit growth (MIC) was 4 µg/mL.

The next experiment concerns Enterococcus faecium. Briefly: The compound was evaluated for the antimicrobial activity against Enterococcus faecium (GC 1182). The class given is functional.
Conditions: not given
In the case of `CCN1CCN(C(=O)NC[C@H]2OCC[C@H]2SC2=C(C(=O)[O-])N3C(=O)[C@H]([C@@H](C)O)[C@H]3[C@H]2C)C(=O)C1=O.[Na+]`, the MIC was > 128 µg/mL.

A further experiment deals with T1, Dipeptidase 1 (Sus scrofa) (UniProt P22412).
T1 sequence (whole entry): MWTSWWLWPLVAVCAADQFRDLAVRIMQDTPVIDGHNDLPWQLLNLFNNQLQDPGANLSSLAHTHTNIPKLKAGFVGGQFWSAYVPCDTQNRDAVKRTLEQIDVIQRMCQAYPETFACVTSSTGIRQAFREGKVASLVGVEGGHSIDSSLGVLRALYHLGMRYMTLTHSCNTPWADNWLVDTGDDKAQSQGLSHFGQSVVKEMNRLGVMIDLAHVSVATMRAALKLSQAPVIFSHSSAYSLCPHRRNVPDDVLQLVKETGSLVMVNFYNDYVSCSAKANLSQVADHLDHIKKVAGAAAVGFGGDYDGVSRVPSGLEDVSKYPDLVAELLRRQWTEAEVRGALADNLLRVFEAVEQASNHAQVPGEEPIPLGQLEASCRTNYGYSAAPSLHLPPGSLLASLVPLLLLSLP
Briefly: Relative hydrolysis to that of imipenem was determined by hog renal dehydropeptidase.
Conditions: not given
Take `CCN1CCN(C(=O)NC[C@H]2OCC[C@H]2SC2=C(C(=O)[O-])N3C(=O)[C@H]([C@@H](C)O)[C@H]3[C@H]2C)C(=O)C1=O.[Na+]`: the Relative hydrolysis is 9.

Consider `C[C@@H](O)[C@H]1C(=O)N2C(C(=O)[O-])=C(SC3COC(CN)C3)[C@H](C)[C@H]12.[Na+]` (stereo not given in full), for which the Relative hydrolysis came to 19.

For a further experiment, the system named is Pseudomonas aeruginosa. The experiment can be described thus: Antimicrobial activity against Pseudomonas aeruginosa (ATCC 27853). The class given is functional.
Conditions: not given
In turn, `CCN1CCN(C(=O)NC[C@H]2OCC[C@H]2SC2=C(C(=O)[O-])N3C(=O)[C@H]([C@@H](C)O)[C@H]3[C@H]2C)C(=O)C1=O.[Na+]` came in with an MIC of 16 µg/mL.

`C[C@@H](O)[C@H]1C(=O)N2C(C(=O)[O-])=C(SC3COC(CN)C3)[C@H](C)[C@H]12.[Na+]` (stereo not given in full) had an MIC of 4 µg/mL.

Test system in the next experiment: not listed separately
The experiment can be described thus: Antimicrobial activity against Enterococcus faecium (GC 1182). The class given is functional.
Conditions: not given
Regarding `C[C@@H](O)[C@H]1C(=O)N2C(C(=O)[O-])=C(SC3COC(CN)C3)[C@H](C)[C@H]12.[Na+]` (stereo not given in full), the MIC was > 128 µg/mL.

In another experiment the test system is Escherichia coli. The experiment can be described thus: Antimicrobial activity against Escherichia coli (ATCC 25922). The class given is functional.
Conditions: not given
`CCN1CCN(C(=O)NC[C@H]2OCC[C@H]2SC2=C(C(=O)[O-])N3C(=O)[C@H]([C@@H](C)O)[C@H]3[C@H]2C)C(=O)C1=O.[Na+]`: the minimum inhibitory concentration (MIC) was ≤ 0.06 µg/mL.

As for `C[C@@H](O)[C@H]1C(=O)N2C(C(=O)[O-])=C(SC3COC(CN)C3)[C@H](C)[C@H]12.[Na+]` (stereo not given in full), the MIC is ≤ 0.06 µg/mL.

The next experiment concerns Pseudomonas aeruginosa. Briefly: Antimicrobial activity against Pseudomonas aeruginosa (GC 1544 OprD). The class given is functional.
Conditions: not given
Take `CCN1CCN(C(=O)NC[C@H]2OCC[C@H]2SC2=C(C(=O)[O-])N3C(=O)[C@H]([C@@H](C)O)[C@H]3[C@H]2C)C(=O)C1=O.[Na+]`: the MIC turned out to be 32 µg/mL.

`C[C@@H](O)[C@H]1C(=O)N2C(C(=O)[O-])=C(SC3COC(CN)C3)[C@H](C)[C@H]12.[Na+]` (stereo not given in full) yielded an MIC of 8 µg/mL.

The next experiment concerns Escherichia coli. The experiment can be described thus: Antimicrobial activity against Escherichia coli (GC 2205). The class given is functional.
Conditions: not given
For the molecule `CCN1CCN(C(=O)NC[C@H]2OCC[C@H]2SC2=C(C(=O)[O-])N3C(=O)[C@H]([C@@H](C)O)[C@H]3[C@H]2C)C(=O)C1=O.[Na+]`, the MIC was ≤ 0.06 µg/mL.

Consider `C[C@@H](O)[C@H]1C(=O)N2C(C(=O)[O-])=C(SC3COC(CN)C3)[C@H](C)[C@H]12.[Na+]` (stereo not given in full), for which the MIC was ≤ 0.06 µg/mL.

Test system in the next experiment: not listed separately
Briefly: Antimicrobial activity against Enterococcus faecalis (GC 842). The class given is functional.
Conditions: not given
As for `C[C@@H](O)[C@H]1C(=O)N2C(C(=O)[O-])=C(SC3COC(CN)C3)[C@H](C)[C@H]12.[Na+]` (stereo not given in full), the MIC was found to be 2 µg/mL.

The next experiment deals with Staphylococcus aureus. The experiment can be described thus: Antimicrobial activity against Staphylococcus aureus (ATCC 29213).
Conditions: not given
The class given is functional.
For the molecule `CCN1CCN(C(=O)NC[C@H]2OCC[C@H]2SC2=C(C(=O)[O-])N3C(=O)[C@H]([C@@H](C)O)[C@H]3[C@H]2C)C(=O)C1=O.[Na+]`, the MIC is ≤ 0.06 µg/mL.

Another experiment has as its system Acinetobacter calcoaceticus. Briefly: Antimicrobial activity against Acinetobacter calcoaceticus (GC 756). The class given is functional.
Conditions: not given
Regarding `CCN1CCN(C(=O)NC[C@H]2OCC[C@H]2SC2=C(C(=O)[O-])N3C(=O)[C@H]([C@@H](C)O)[C@H]3[C@H]2C)C(=O)C1=O.[Na+]`, the MIC was 2 µg/mL.

For the molecule `C[C@@H](O)[C@H]1C(=O)N2C(C(=O)[O-])=C(SC3COC(CN)C3)[C@H](C)[C@H]12.[Na+]` (stereo not given in full), the minimal inhibitory concentration (MIC) was 1 µg/mL.

Another experiment has as its system Staphylococcus aureus. The experiment can be described thus: Antimicrobial activity against methicillin - resistant Staphylococcus aureus (GC 2220). The class given is functional.
Conditions: not given
The molecule `C[C@@H](O)[C@H]1C(=O)N2C(C(=O)[O-])=C(SC3COC(CN)C3)[C@H](C)[C@H]12.[Na+]` (stereo not given in full) showed an MIC of 8 µg/mL.

In another experiment the test system is Escherichia coli. The experiment can be described thus: Antimicrobial activity against Escherichia coli (GC 1792).
Conditions: not given
The class given is functional.
As for `CCN1CCN(C(=O)NC[C@H]2OCC[C@H]2SC2=C(C(=O)[O-])N3C(=O)[C@H]([C@@H](C)O)[C@H]3[C@H]2C)C(=O)C1=O.[Na+]`, the minimal inhibitory concentration (MIC) was ≤ 0.06 µg/mL.

Turning to `C[C@@H](O)[C@H]1C(=O)N2C(C(=O)[O-])=C(SC3COC(CN)C3)[C@H](C)[C@H]12.[Na+]` (stereo not given in full), the lowest concentration to inhibit growth (MIC) was 0.06 µg/mL.
